Where a name gives a salt, the structure may show the parent alone.
Tests used:
[1] = target: T1, Human vitronectin receptor (αv β3) (Homo sapiens, UniProt P05106+P06756); assay: Vitronectin adhesion assay (solid phase receptor assay, αvβ3); assay type: binding; settings: inhibition of binding of biotinylated human vitronectin (1 nM) to purified receptor; Table I; read-out: AvB3 IC50
T1 construct: Human vitronectin receptor (αv β3) was purified from human placenta; from tissue; host or cells: human placenta
T1 sequence (P06756 31-889 limits assumed): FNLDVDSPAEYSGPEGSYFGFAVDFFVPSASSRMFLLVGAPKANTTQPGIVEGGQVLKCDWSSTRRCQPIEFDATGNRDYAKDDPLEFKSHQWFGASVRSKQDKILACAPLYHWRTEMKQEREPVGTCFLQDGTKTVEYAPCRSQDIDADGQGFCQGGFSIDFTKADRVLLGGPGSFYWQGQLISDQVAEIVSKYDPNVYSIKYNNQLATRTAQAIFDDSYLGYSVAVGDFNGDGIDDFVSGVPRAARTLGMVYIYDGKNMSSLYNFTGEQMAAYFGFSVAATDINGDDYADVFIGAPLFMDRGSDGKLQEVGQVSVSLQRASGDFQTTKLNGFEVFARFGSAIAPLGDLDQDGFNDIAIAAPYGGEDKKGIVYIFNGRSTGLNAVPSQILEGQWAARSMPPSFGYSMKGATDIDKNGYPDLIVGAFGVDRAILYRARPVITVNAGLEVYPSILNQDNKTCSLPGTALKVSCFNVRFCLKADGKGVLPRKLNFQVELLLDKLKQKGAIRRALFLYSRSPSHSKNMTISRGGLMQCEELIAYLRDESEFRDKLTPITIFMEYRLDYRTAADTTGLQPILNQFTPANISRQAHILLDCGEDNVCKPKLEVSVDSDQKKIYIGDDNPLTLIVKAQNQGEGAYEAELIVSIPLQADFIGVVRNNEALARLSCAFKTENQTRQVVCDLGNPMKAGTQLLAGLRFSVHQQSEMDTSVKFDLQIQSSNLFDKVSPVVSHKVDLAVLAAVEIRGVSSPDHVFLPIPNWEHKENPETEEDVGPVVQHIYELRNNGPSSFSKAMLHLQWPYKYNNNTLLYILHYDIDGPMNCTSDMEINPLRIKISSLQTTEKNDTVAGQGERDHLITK
T1 sequence (P06756 891-1048 limits assumed): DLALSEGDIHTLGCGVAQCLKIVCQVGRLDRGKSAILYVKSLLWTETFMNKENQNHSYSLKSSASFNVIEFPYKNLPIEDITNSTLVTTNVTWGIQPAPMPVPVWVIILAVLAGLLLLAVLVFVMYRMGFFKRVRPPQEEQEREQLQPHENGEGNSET
T1 sequence (P05106 27-788): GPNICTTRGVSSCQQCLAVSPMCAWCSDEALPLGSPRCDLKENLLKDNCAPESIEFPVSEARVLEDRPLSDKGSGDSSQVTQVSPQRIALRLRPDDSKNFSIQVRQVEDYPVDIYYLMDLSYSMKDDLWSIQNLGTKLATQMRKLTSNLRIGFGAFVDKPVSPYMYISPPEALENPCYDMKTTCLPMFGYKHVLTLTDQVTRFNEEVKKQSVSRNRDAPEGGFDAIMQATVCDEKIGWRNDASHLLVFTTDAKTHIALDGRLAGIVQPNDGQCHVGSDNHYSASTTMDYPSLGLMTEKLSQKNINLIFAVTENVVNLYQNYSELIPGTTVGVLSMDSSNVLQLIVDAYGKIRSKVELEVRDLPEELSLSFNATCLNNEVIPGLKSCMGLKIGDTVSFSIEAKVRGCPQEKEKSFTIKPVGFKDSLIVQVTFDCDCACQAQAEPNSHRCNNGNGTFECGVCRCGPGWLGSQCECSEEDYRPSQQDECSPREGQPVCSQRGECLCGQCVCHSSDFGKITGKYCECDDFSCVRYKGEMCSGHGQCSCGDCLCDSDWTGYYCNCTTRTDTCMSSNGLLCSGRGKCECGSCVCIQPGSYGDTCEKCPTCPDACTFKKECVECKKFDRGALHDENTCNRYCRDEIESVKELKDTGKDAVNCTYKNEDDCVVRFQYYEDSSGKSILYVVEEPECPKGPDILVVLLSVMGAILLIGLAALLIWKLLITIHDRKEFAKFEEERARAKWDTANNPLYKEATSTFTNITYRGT
Method in brief: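 Placental αvβ3 (100 ng/well) coated in TBS with 1 mM Ca, Mg, Mn, pH 7.4, then compound competed with 1 nM biotinylated vitronectin for 2 h at room temperature (top compound concentration 1.0×10^-4 M). Bound ligand detected with HRP anti-biotin/OPD at 450 nm; values normalized to maximum binding, four-parameter curve fit.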

[2] = target: T2, Human fibrinogen receptor (αIIb β3) (Homo sapiens, UniProt P05106+P08514); assay: Purified IIb/IIIa receptor assay (solid phase receptor assay); settings: inhibition of binding of biotinylated human vitronectin (1 nM) to purified receptor; Table I
T2 construct: Human fibrinogen receptor (αIIb β3) was purified from outdated platelets; from tissue; host or cells: human outdated platelets
T2 sequence (P08514 32-887 limits assumed): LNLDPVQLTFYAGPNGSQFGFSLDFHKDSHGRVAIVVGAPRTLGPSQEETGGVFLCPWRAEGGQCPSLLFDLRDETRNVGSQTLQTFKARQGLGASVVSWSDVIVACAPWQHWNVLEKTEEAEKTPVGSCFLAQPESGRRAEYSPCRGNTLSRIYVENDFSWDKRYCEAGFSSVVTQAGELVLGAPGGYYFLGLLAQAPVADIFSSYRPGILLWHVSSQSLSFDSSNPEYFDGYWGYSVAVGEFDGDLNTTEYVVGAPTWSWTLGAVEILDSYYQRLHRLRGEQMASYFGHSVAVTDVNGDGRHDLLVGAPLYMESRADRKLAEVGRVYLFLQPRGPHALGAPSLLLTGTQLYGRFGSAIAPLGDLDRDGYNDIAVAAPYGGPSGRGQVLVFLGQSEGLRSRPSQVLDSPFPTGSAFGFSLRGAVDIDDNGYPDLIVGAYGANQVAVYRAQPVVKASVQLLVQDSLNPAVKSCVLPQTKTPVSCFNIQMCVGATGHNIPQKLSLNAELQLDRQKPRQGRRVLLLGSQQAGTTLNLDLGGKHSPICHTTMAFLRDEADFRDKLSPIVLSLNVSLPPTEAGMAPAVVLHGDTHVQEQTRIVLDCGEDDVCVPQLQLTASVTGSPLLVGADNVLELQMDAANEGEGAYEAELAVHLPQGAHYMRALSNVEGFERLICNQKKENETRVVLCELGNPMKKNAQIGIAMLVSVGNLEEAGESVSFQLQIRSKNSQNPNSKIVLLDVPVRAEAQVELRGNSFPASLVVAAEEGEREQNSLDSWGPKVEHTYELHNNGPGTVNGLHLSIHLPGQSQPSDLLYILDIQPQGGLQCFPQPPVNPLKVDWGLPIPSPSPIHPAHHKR
T2 sequence (P08514 891-1039 limits assumed): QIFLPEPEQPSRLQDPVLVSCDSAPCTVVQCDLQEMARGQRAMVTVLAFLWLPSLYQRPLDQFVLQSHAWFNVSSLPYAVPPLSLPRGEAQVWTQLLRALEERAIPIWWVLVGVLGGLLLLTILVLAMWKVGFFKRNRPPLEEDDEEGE
T2 sequence (P05106 27-788): as the sequence (P05106 27-788) above
Method in brief: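 Platelet-purified αIIbβ3 (100 ng/well) coated overnight at 4 °C, then competed 2 h at room temperature against 1 nM biotinylated human vitronectin in TBS with 1.0 mM Ca/Mg/Mn, pH 7.4, 1% BSA; top compound 1.0×10^-4 M. Bound ligand detected by HRP anti-biotin, A450, normalized to maximum binding, four-parameter fit.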

IC50 [1] [µM] | IC50 [2] [µM] | SMILES
0.0563 | 1.79 | O=C(O)/C=C/c1ccc2c(c1)CCCN2C(=O)c1cccc(NC2=NCCCN2)c1 [Example 78, 3-[1-[[3-[(1,4,5,6-tetrahydropyrimidin-2-yl)amino]phenyl]carbonyl]-1,2,3,4-tetrahydro-quinolin-6-yl]propenoic acid, trifluoroacetate salt]
0.012 | 0.415 | N=C(N)Nc1cccc(C(=O)COc2cccc(/C=C/C(=O)O)c2)c1 [Example 79, 3-[3-[2-[3-[(aminoimino)methyl]amino]phenyl]-2-oxoethoxy]phenyl]propenoic acid, trifluoroacetate salt]
0.00102 | 3.47 | O=C(O)/C=C/c1cccc(OCC(=O)c2cccc(NC3=NCCN3)c2)c1 [Example 80, 3-[3-[2-[3-[(4,5-dihydro-1H-imidazol-2-yl)amino]phenyl]-2-oxoethoxy]phenyl]propenoic acid, trifluoroacetate salt]
0.0543 | 5.02 | N=C(N)Nc1cccc(C(O)CNc2cccc(/C=C/C(=O)O)c2)c1 (centres unmarked) [Example 81, 3-[3-[[2-[3-[(aminoiminomethyl)amino]phenyl]-2-hydroxyethyl]amino]phenyl]propenoic acid, (bis)trifluoroacetate salt hydrate]
0.0217 | 10 | O=C(O)/C=C/c1cccc(C(=O)COc2cccc(NC3=NCCN3)c2)c1 [Example 83, 3-[3-[2-[3-[(4,5-dihydro-1H-imidazol-2-yl)amino]phenoxy]acetyl]phenyl]propenoic acid, trifluoroacetate salt]
0.891 | 35.2 | N=C(N)Nc1cccc(/C=C/C(=O)c2ccc(F)c(/C=C/C(=O)O)c2)c1 [Example 84, 3-[5-[3-[3-[(aminoiminomethyl)amino]phenyl]-1-oxopropenyl]-2-fluorophenyl]propenoic acid, trifluoroacetate salt]
0.092 | 20.8 | O=C(O)C=Cc1cc(C(=O)C=Cc2cccc(C3=NCCCN3)c2)ccc1F [Example 85, 3-[5-[3-[3-[(1,4,5,6-tetrahydrolpyrimidin-2-yl)]phenyl]-1-oxopropenyl]-2-fluorophenyl]propenoic acid, trifluoroacetate salt]
0.58 | 0.563 | COc1ccc(/C=C/C(=O)O)cc1C(=O)/C=C/c1cccc(NC(=N)N)c1 [Example 86, 3-[3-[3-[3-[(aminoiminomethyl)amino]phenyl]-1-oxopropenyl]-4-methoxyphenyl]propenoic acid, trifluoroacetate salt]
0.0905 | 2.64 | COc1ccc(/C=C/C(=O)O)cc1C(=O)/C=C/c1cccc(NC2=NCCN2)c1 [Example 87, 3-[3-[3-[3-[(4,5-dihydro-1H-imidazol-2-yl)amino]phenyl]-1-oxopropenyl]-4-methoxyphenyl]propenoic acid, trifluoroacetate salt]
0.0373 | 2.61 | N=C(N)Nc1cccc(/C=C/C(=O)c2cccc(/C=C/C(=O)O)c2)c1 [Example 88, 3-[3-[3-[3-[(aminoiminomethyl)amino]phenyl]-1-oxopropenyl]phenyl]propenoic acid, trifluoroacetate salt]
0.196 | 1.26 | N=C(N)Nc1cccc(C(=O)/C=C/c2cccc(/C=C/C(=O)O)c2)c1 [Example 89, 3-[3-[3-[3-[(aminoiminomethyl)amino]phenyl]-3-oxopropenyl]phenyl]propenoic acid, trifluoroacetate salt hydrate]
0.00698 | 2.32 | O=C(O)/C=C/c1cccc(C(=O)/C=C/c2cccc(NC3=NCCCN3)c2)c1 [Example 90, 3-[3-[1-oxo-3-[3-[(1,4,5,6-tetrahydropyrimidin-2-yl)amino]phenyl]-2-propenyl]phenyl]propenoic acid, trifluoroacetate salt]
1.27 | 8.67 | N=C(N)Nc1cccc(C(=O)CCc2cccc(/C=C/C(=O)O)c2)c1 [Example 91, 3-[3-[3-[3-[(aminoiminomethyl)amino]phenyl]-3-oxopropyl]phenyl]propenoic acid, trifluoroacetate salt hydrate]
0.0489 | 4.01 | N=C(N)Nc1cccc(CCC(=O)c2cccc(/C=C/C(=O)O)c2)c1 [Example 92, 3-[3-[3-[3-[(aminoiminomethyl)amino]phenyl]-1-oxopropyl]phenyl]propenoic acid, trifluoroacetate salt]

More lines, now with the values behind:

SMILES | IC50 [1] [µM] | IC50 [2] [µM]
Cc1cc(/C=C/C(=O)O)cc(C)c1NC(=O)c1cccc(NC2=NCCCS2)c1 [Example 57, 3-[4-[[[3-[(5,6-dihydro-4H-1,3-thiazin-2-yl)amino]phenyl]carbonyl]amino]3,5-dimethylphenyl]propenoic acid, trifluoroacetate salt] | 0.0258 | 12.8
C/C(=C\C(=O)O)c1ccc(NC(=O)c2cccc(NC(=N)N)c2)cc1 [Example 59, 3-[4-[[[3-[(aminoiminomethyl)amino]phenyl]carbonyl]amino]phenyl]-2-butenoicacid, trifluoroacetate salt] | 1.27 | 5.14
N=C(N)Nc1cccc(C(=O)Nc2ccc(/C=C(\NC(=O)c3ccccc3)C(=O)O)cc2)c1 [Example 60, 3-[4-[[[3-[(aminoiminomethyl)amino]phenyl]carbonyl]amino]phenyl]-2-[(phenylcarbonyl)amino]propenoic acid, trifluoroacetate salt] | 0.0673 | 0.44
O=C(O)/C=C/c1cccc(CNC(=O)c2cccc(NC3=NCCCN3)c2)c1 [Example 62, 3-[3-[[[[3-[(1,4,5,6-tetrahydropyrimidin-2-yl)amino]phenyl]carbonyl]amino]methyl]phenyl]propenoic acid, monohydrochloride] | 0.00204 | 23.3
O=C(O)/C=C/c1cccc(CNC(=O)c2cccc(NC(=O)NCc3ccccc3)c2)c1 [Example 64, 3-[3-[[[[3-[[[(phenylmethyl)amino]carbonyl]amino]phenyl]carbonyl]amino]methyl]phenyl]propenoic acid, trifluoroacetate salt] | 2.18 | 16.2
CC(C)COC(=O)N1CCN=C1Nc1cccc(C(=O)NCc2cccc(/C=C/C(=O)O)c2)c1 [Example 65, 3-[3-[[[[3-[[4,5-dihydro-1-[(2-methylpropoxy)carbonyl]-1H-imidazol-2-yl]amino]phenyl]carbonyl]amino]methyl]phenyl]propenoic acid, monohydrochloride hydrate] | 0.0121 | 4.95
O=C(O)/C=C/c1cccc(CNC(=O)c2cccc(NC3=NCCN3)c2)c1 [Example 67, 3-[3-[[[[3-[(4,5-dihydro-1H-imidazol-2-yl)amino]phenyl]carbonyl]amino]methyl]phenyl]propenoic acid, monohydrochloride hydrate] | 0.00227 | 12
O=C(O)/C=C/c1cccc(CNC(=O)c2cc(NC3=NCCCN3)cc(C(F)(F)F)c2)c1 [Example 69, 3-[3-[[[[3-[(1,4,5,6-tetrahydropyrimidin-2-yl)amino]-5-(trifluoromethyl)phenyl]carbonyl]amino]methyl]phenyl]propenoic acid, dihydrochloride hydrate] | 0.00178 | 38.9
O=C(O)/C=C/c1cccc(CNC(=O)c2cc(NC3=NCCN3)cc(C(F)(F)F)c2)c1 [Example 71, 3-[3-[[[[3-[(4,5-dihydro-1H-imidazol-2-yl)amino]-5-(trifluoromethyl)phenyl]carbonyl]amino]methyl]phenyl]propenoic acid, monohydrochloride hydrate] | 0.00133 | 18.5
O=C(O)/C=C/c1cccc(CNC(=O)c2cccc(Nc3ncccn3)c2)c1 [Example 73, 3-[3-[[[[3-[(2-pyrimidinyl)amino]phenyl]carbonyl]amino]methyl]phenyl]propenoic acid, trifluoroacetate salt] | 20.4 | 66
CC/C(=C\C(=O)O)c1cccc(CNC(=O)c2cccc(NC(=N)N)c2)c1 [Example 74, 3-[3-[[[[3-[(aminoiminomethyl)amino]phenyl]carbonyl]amino]methyl]phenyl]-2E-pentenoic acid, trifluoroacetate salt hydrate] | 2.69 | > 100
N=C(N)Nc1cccc(C(=O)NCc2cccc(C(=CC(=O)O)c3cc(Cl)cc(Cl)c3)c2)c1 [Example 75, 3-[3-[[[[3-[(aminoiminomethyl)amino]phenyl]carbonyl]amino]methyl]phenyl]-3-(3,5-dichlorophenyl) propenoic acid, trifluoroacetate salt] | 42.7 | > 100
O=C(O)/C=C/c1ccc2c(c1)CCN2C(=O)c1cccc(NC2=NCCCN2)c1 [Example 76, 3-[2,3-dihydro-1-[[3-[(1,4,5,6-tetrahydropyrimidin-2-yl)amino]phenyl]carbonyl]-1H-indol-5-yl]propenoic acid, trifluoroacetate salt] | 0.0088 | 0.825
O=C(O)/C=C/c1ccc2c(c1)CCN2C(=O)c1cccc(NC2=NCCN2)c1 [Example 77, 3-[1-[[3-[(4,5-dihydro-1H-imidazol-2-yl)amino]phenyl]carbonyl]2,3-dihydro-1H-indol-5-yl]propenoic acid, trifluoroacetate salt] | 0.0123 | 0.231

— patent US5852210A, “Cinnamic acid derivatives” (G. D. Searle & Co., priority 1997, dated 1998)
